Legend:
Experiment in all cases: dopachrome formation, absorbance […] nm, non-linear regression
Details in all cases: free enzyme; 0.05 M Na-phosphate pH 6.5; 1-30 mM L-DOPA
[1] = system: tyrosinase from D. praehensilis; assay type: biochemical, Dioscorea praehensilis
[2] = system: tyrosinase from D. alata; assay type: biochemical, Dioscorea alata
[3] = system: tyrosinase from C. esculenta; assay type: biochemical, Colocasia esculenta
[4] = system: tyrosinase from D. rotundata; assay type: biochemical, Dioscorea cayenensis subsp. rotundata

## N[C@@H](Cc1ccc(O)c(O)c1)C(=O)O [L-DOPA, 3,4-dihydroxyphenyl-L-alanine]
[1]
  Km: 9.6 ± 3.7 mM
[2]
  Km: 20 ± 11 mM
[3]
  Km: 23.7 ± 14 mM
[4]
  Km: 6.8 ± 2.6 mM

Source: paper PMC7352059 (Biotechnology Reports, 2020)
